Data from BigSolDB 2.1.

N#CC(c1ccc(Cl)cc1)c1c(Cl)cc(-n2ncc(=O)[nH]c2=O)cc1Cl (stereo not given)
solubility (mole fraction)
Settings | in DMF | in acetone | in acetonitrile | in ethanol | in ethyl acetate | in isopropanol | in methanol | in n-butanol | in n-propanol | in toluene
283.15 K | 0.0254 | 0.012 | 0.00825 | 0.00168 | 0.0052 | 0.000798 | 0.00233 | 0.000481 | 0.00118 | 0.000263
288.15 K | 0.028 | 0.014 | 0.00972 | 0.00204 | 0.00634 | 0.00102 | 0.0027 | 0.000639 | 0.00146 | 0.000371
293.15 K | 0.0309 | 0.0162 | 0.0115 | 0.00245 | 0.0077 | 0.00129 | 0.00316 | 0.000851 | 0.00179 | 0.00052
298.15 K | 0.0339 | 0.0186 | 0.0135 | 0.00293 | 0.00924 | 0.00163 | 0.00369 | 0.0011 | 0.00221 | 0.000692
303.15 K | 0.0372 | 0.0215 | 0.0157 | 0.00347 | 0.0111 | 0.00204 | 0.00426 | 0.00142 | 0.00268 | 0.000923
308.15 K | 0.0407 | 0.0247 | 0.0183 | 0.00407 | 0.0132 | 0.00251 | 0.00494 | 0.00181 | 0.00321 | 0.00123
313.15 K | 0.0444 | 0.0281 | 0.0211 | 0.00476 | 0.0157 | 0.00308 | 0.00566 | 0.00229 | 0.00383 | 0.00162
318.15 K | 0.0484 | 0.032 | 0.0244 | 0.00555 | 0.0185 | 0.00374 | 0.00646 | 0.00288 | 0.0046 | 0.00211
323.15 K | 0.0527 | 0.0361 | 0.0279 | 0.00641 | 0.0217 | 0.00455 | 0.00737 | 0.0036 | 0.00543 | 0.0027
